Columns and labels:
Type in all cases: cell-based
A498 = assay: cells
COLO 205 = assay: cells
IGROV1 = assay: cells
NCI-H226 = assay: cells
K-562 = assay: cells
786-0 = assay: cells
HS 578T = assay: cells
NCI-H460 = assay: cells
SK-MEL-5 = assay: cells
HL-60 (TB) = assay: cells; details: HL-60 (TB) (Leukemia), 10 μM, 48 hours
SK-MEL-28 = assay: cells
BT-549 = assay: cells
SR = assay: cells
SF-295 = assay: cells; details: CNS Cancer SF-295
[1] = test system: 55 to 60 cancer cell lines; details: 10 μM
DU-145 = assay: cells
KM12 = assay: cells
CCRF-CEM = assay: cells
SF-539 = assay: cells
HT29 = assay: cells
SN12C = assay: cells
RXF 393 = assay: cells; details: RXF 393 (Renal Cancer), 10 μM, 48 hours
U251 = assay: cells; details: CNS Cancer U251
NCI-H23 = assay: cells
human PC-3 cells = assay: Sulforhodamine B (SRB) assay, cytotoxicity against PC-3 cells; details: SRB assay, PC-3 cells
In short: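 PC-3 cells in 5% FBS were fixed with 10% TCA after 24 h as T0, then treated with compound for 48 h, fixed, stained with 0.4% SRB in 1% acetic acid and solubilized in 10 mmol/L Trizma base. Absorbance was read at 515 nm. GI% = 100−[(Tx−T0)/(C−T0)]×100, and IC50 is the concentration halving total protein.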

SW-620 = assay: cells
NCI/ADR-RES = assay: cells
HCT-116 = assay: cells
HOP-62 = assay: cells
T-47D = assay: cells
[2] = Homo sapiens, K562, Leukemia K-562
[3] = Homo sapiens, CNS Cancer SF-539
[4] = Homo sapiens, Non-Small Cell Lung Cancer NCI-H23
[5] = Homo sapiens, Colon Cancer SW-620
[6] = Homo sapiens, Colon Cancer HCT-116
[7] = Homo sapiens, Non-Small Cell Lung Cancer HOP-62

`CCN(CC)CCNc1nc2ccccc2c2c1-c1ccc(Cl)cc1C2=O` [SJ-3, 6-(2-(Diethylamino)ethylamino)-9-chloro-11H-indeno[1,2-c]quinolin-11-one] was tested, and the growth percentage (A498; A498 (Renal Cancer), 10 μM, 48 hours) was 88.98%, the GI50 (A498; Homo sapiens, Renal Cancer A498) was 8.76 µM and the CC50 (A498; Homo sapiens, Renal Cancer A498, read-out: LC50 (the source's name)) was 50.8 µM. The TGI (A498; Renal Cancer A498) was 1.78 µM, the growth percentage (COLO 205; COLO 205 (Colon Cancer), 10 μM, 48 hours) was 45.69% and the GI50 (COLO 205; Homo sapiens, Colon Cancer COLO 205) was 2.41 µM. For the same compound, the GI50 (IGROV1; Homo sapiens, IGROV-1, Ovarian Cancer IGROV1) was 11.2 µM, the CC50 (IGROV1; Homo sapiens, IGROV-1, Ovarian Cancer IGROV1, read-out: LC50 (the source's name)) was 7.82 µM and the growth percentage (IGROV1; IGROV1 (Ovarian Cancer), 10 μM, 48 hours) was 43.43%. It also gave a TGI (IGROV1; Ovarian Cancer IGROV1) of 3.62 µM, a GI50 (NCI-H226; Homo sapiens, Non-Small Cell Lung Cancer NCI-H226) of 1.88 µM and a growth percentage (NCI-H226; NCI-H226 (Non-Small Cell Lung Cancer), 10 μM, 48 hours) of 80.86%. The GI50 (K-562; [2]) was 8.75 µM, the LC50 (lethal concentration, 50% cell kill) (K-562; [2]) was 7.46 µM and the growth percentage (K-562; K-562 (Leukemia), 10 μM, 48 hours) was 45.29%. It also gave a TGI (K-562; Leukemia K-562) of 3.61 µM, a growth percentage (786-0; 786-0 (Renal Cancer), 10 μM, 48 hours) of 74.13% and a GI50 (786-0; Homo sapiens, 786-0, Renal Cancer 786-O) of 26.8 µM. It also gave a CC50 (786-0; Homo sapiens, 786-0, Renal Cancer 786-O, read-out: LC50 (the source's name)) of 6.01 µM, a TGI (786-0; Renal Cancer 786-O) of 3.29 µM and a TGI (HS 578T; Breast Cancer HS 578T) of 10.00 µM. For the same compound, the growth percentage (HS 578T; HS 578T (Breast Cancer), 10 μM, 48 hours) was 84.70%, the GI50 (HS 578T; Homo sapiens, Breast Cancer HS 578T) was 19.3 µM and the CC50 (HS 578T; Homo sapiens, Breast Cancer HS 578T, read-out: LC50 (the source's name)) was 46.1 µM. It also gave a GI50 (NCI-H460; Homo sapiens, Non-Small Cell Lung Cancer NCI-460) of 5.15 µM, a CC50 (NCI-H460; Homo sapiens, Non-Small Cell Lung Cancer NCI-460, read-out: LC50 (the source's name)) of 6.74 µM and a growth percentage (NCI-H460; NCI-H460 (Non-Small Cell Lung Cancer), 10 μM, 48 hours) of 25.15%. For the same compound, the TGI (NCI-H460; Non-Small Cell Lung Cancer NCI-460) was 3.20 µM, the GI50 (SK-MEL-5; Homo sapiens, Melanoma SK-MEL-5) was 1.15 µM and the TGI (SK-MEL-5; Melanoma SK-MEL-5) was 2.61 µM. For the same compound, the growth percentage (SK-MEL-5; SK-MEL-5 (Melanoma), 10 μM, 48 hours) was 82.51%, the growth percentage (HL-60 (TB)) was 94.33% and the GI50 (SK-MEL-28; Homo sapiens, Melanoma SK-MEL-28) was 6 µM. For the same compound, the CC50 (SK-MEL-28; Homo sapiens, Melanoma SK-MEL-28, read-out: LC50 (the source's name)) was 5.83 µM, the TGI (SK-MEL-28; Melanoma SK-MEL-28) was 3.21 µM and the growth percentage (SK-MEL-28; SK-MEL-28 (Melanoma), 10 μM, 48 hours) was 87.40%. It also gave a growth percentage (BT-549; BT-549 (Breast Cancer), 10 μM, 48 hours) of 87.48%, a TGI (BT-549; Breast Cancer BT-549) of 9.50 µM and a GI50 (BT-549; Homo sapiens, Breast Cancer BT-549) of 32.5 µM. It also gave a CC50 (BT-549; Homo sapiens, Breast Cancer BT-549, read-out: LC50 (the source's name)) of 45.5 µM, a GI50 (SR; Homo sapiens, Leukemia SR) of 5.05 µM and an LC50 (50% lethal concentration) (SR; Homo sapiens, Leukemia SR) of 11.6 µM. The TGI (SR; Leukemia SR) was 4.06 µM, the growth percentage (SR; SR (Leukemia), 10 μM, 48 hours) was 46.92% and the TGI (SF-295) was 4.60 µM. The GI50 (SF-295; Homo sapiens) was 17.8 µM, the LC50 (concentration killing 50% of cells) (SF-295; Homo sapiens) was 9.85 µM and the “Mean (mean growth percentage of the tested cancer cell lines)” value ([1]; 48 hours, all tested cell lines) was 62.4%. The “cytotoxicity in the first stage (in words)” value ([1]; basis for selection for the five-dose test) was “potential cytotoxicity”, the growth percentage (DU-145; DU-145 (Prostate Cancer), 10 μM, 48 hours) was 65.48% and the GI50 (DU-145; Homo sapiens, Prostate Cancer DU-145) was 18.8 µM. It also gave a CC50 (DU-145; Homo sapiens, Prostate Cancer DU-145, read-out: LC50 (the source's name)) of 5.43 µM, a TGI (DU-145; Prostate Cancer DU-145) of 2.94 µM and a TGI (KM12; Colon Cancer KM12) of 3.11 µM. It also gave a GI50 (KM12; Homo sapiens, Colon Cancer KM12) of 6.48 µM, a CC50 (KM12; Homo sapiens, Colon Cancer KM12, read-out: LC50 (the source's name)) of 5.96 µM and a growth percentage (KM12; KM12 (Colon Cancer), 10 μM, 48 hours) of 53.42%. The growth percentage (CCRF-CEM; CCRF-CEM (Leukemia), 10 μM, 48 hours) was 42.00%, the GI50 (CCRF-CEM; Homo sapiens, Leukemia CCRF-CEM) was 8.24 µM and the CC50 (CCRF-CEM; Homo sapiens, Leukemia CCRF-CEM, read-out: LC50 (the source's name)) was 7.8 µM. The TGI (CCRF-CEM; Leukemia CCRF-CEM) was 3.50 µM, the TGI (SF-539; CNS Cancer SF-539) was 3.15 µM and the GI50 (SF-539; [3]) was 20.9 µM. For the same compound, the LC50 (concentration giving 50% net cell kill) (SF-539; [3]) was 5.86 µM, the growth percentage (SF-539; SF-539 (CNS Cancer), 10 μM, 48 hours) was 85.04% and the TGI (HT29; Colon Cancer HT29) was 3.16 µM. It also gave a growth percentage (HT29; HT29 (Colon Cancer), 10 μM, 48 hours) of 9.75%, a GI50 (HT29; Homo sapiens, HT-29, Colon Cancer HT29) of 4.23 µM and a CC50 (HT29; Homo sapiens, HT-29, Colon Cancer HT29, read-out: LC50 (the source's name)) of 6.28 µM. It also gave a GI50 (SN12C; Homo sapiens, Renal Cancer SN12C) of 4.12 µM, a CC50 (SN12C; Homo sapiens, Renal Cancer SN12C, read-out: LC50 (the source's name)) of 6.16 µM and a TGI (SN12C; Renal Cancer SN12C) of 2.87 µM. The growth percentage (SN12C; SN12C (Renal Cancer), 10 μM, 48 hours) was 61.60%, the growth percentage (RXF 393) was 51.90% and the TGI (U251) was 3.06 µM. The GI50 (U251; Homo sapiens, U-251) was 11.4 µM, the LC50 (concentration killing 50% of cells) (U251; Homo sapiens, U-251) was 5.88 µM and the GI50 (NCI-H23; [4]) was 2.63 µM. For the same compound, the LC50 (NCI-H23; [4]) was 8.35 µM, the growth percentage (NCI-H23; NCI-H23 (Non-Small Cell Lung Cancer), 10 μM, 48 hours) was 80.63% and the TGI (NCI-H23; Non-Small Cell Lung Cancer NCI-H23) was 4.00 µM. The “Toxicity (%)” value (human PC-3 cells) was 55.6%, the “GI % (10 μM)” value (human PC-3 cells; 10 μM) was 100% and the TGI (SW-620; Colon Cancer SW-620) was 3.06 µM. It also gave a GI50 (SW-620; [5]) of 5.12 µM, an LC50 (concentration killing 50% of cells) (SW-620; [5]) of 6.67 µM and a growth percentage (SW-620; SW-620 (Colon Cancer), 10 μM, 48 hours) of 43.72%. The GI50 (NCI/ADR-RES; Homo sapiens, Ovarian Cancer NCI/ADR-RES) was 19.3 µM, the CC50 (NCI/ADR-RES; Homo sapiens, Ovarian Cancer NCI/ADR-RES, read-out: LC50 (the source's name)) was 7.41 µM and the growth percentage (NCI/ADR-RES; NCI/ADR-RES (Ovarian Cancer), 10 μM, 48 hours) was 69.55%. For the same compound, the TGI (NCI/ADR-RES; Ovarian Cancer NCI/ADR-RES) was 3.67 µM, the TGI (HCT-116; Colon Cancer HCT-116) was 3.19 µM and the growth percentage (HCT-116; HCT-116 (Colon Cancer), 10 μM, 48 hours) was 36.96%. The GI50 (HCT-116; [6]) was 6.19 µM, the LC50 (50% lethal concentration) (HCT-116; [6]) was 6.06 µM and the growth percentage (HOP-62; HOP-62 (Non-Small Cell Lung Cancer), 10 μM, 48 hours) was 24.86%. It also gave a GI50 (HOP-62; [7]) of 4.51 µM, an LC50 (50% lethal concentration) (HOP-62; [7]) of 5.74 µM and a TGI (HOP-62; Non-Small Cell Lung Cancer HOP-62) of 2.83 µM. The TGI (T-47D; Breast Cancer T-47D) was 3.56 µM, the GI50 (T-47D; Homo sapiens, T47D, Breast Cancer T-47D) was 17.8 µM and the CC50 (T-47D; Homo sapiens, T47D, Breast Cancer T-47D, read-out: LC50 (the source's name)) was 7.19 µM. The growth percentage (T-47D; T-47D (Breast Cancer), 10 μM, 48 hours) was 43.28%.

Reference: patent publication US20150197492A1, “NOVEL INDENO[1,2-c]QUINOLIN-11-ONE DERIVATIVES, PREPARATION METHOD AND APPLICATION THEREOF” (National Defense Medical Center, priority 2014, published 2015)
